Assay results published in publication PMC10683014, “Amino Acids as Chelating Ligands for Platinum: Enhanced Stability in an Aqueous Environment Promoted by Biocompatible Molecules” (Journal of Medicinal Chemistry, 2023).

How the values were obtained:
[1] = test system: A2780cis ovarian carcinoma cell line (cisplatin-resistant); experiment: MTT metabolic activity (cytotoxicity) assay, A2780cis; type: cell-based; settings: for IC50: MTT, 72 h incubation
Procedure: (§1) In order to determine the antitumor activity of the platinum complexes, in vitro cytotoxicity tests were performed. Compounds 1–4 were tested with cisplatin as a reference on the breast cancer cell line MCF-7 and the colon carcinoma cell line HT-29. Complexes 1, 4, and 5, as well as the ligand (but-3-en-1-yl 2-acetoxybenzoate, 6) were additionally evaluated on MDA-MB-231 cells and A2780cis cells, also using cisplatin as a reference. The metabolic activity as an indicator of cytotoxicity was determined by a classical 3-(4,5-dimethylthiazol-2-yl)-2,5-diphenyltetrazoliumbromid (MTT) assay.
(§2) The cell lines A2780cis and MDA-MB-231 were cultivated in RPMI 1640 without phenol red (PAN Biotech, Aidenbach, Germany), supplemented with L-glutamine (2 mM), 100 μg/mL penicillin, 100 μg/mL streptomycin, and FCS (10%) (all from Invitrogen Corporation, Gibco, Paisley, Scotland) at 37 °C in a 5% CO2/95% air atmosphere, and passaged twice per week. To maintain resistance, A2780cis cells were incubated every second week with cisplatin (1 μM). The cell lines MCF-7 and HT-29 were grown in DMEM without phenol red (PAN Biotech, Aidenbach, Germany), containing L-glutamine, 100 μg/mL penicillin, 100 μg/mL streptomycin, sodium pyruvate ([…]) (PAN Biotech), and FCS (10%) under the same conditions as the other cell lines.
(§3) The exponentially growing cell lines were seeded at a density of 2000 cells/well for MCF-7 cells, 4000 cells/well for HT-29 cells and MDA-MB-231 cells, and 8000 cells/well for A2780cis cells, respectively, into clear flat-bottom 96-well plates in triplicates. Following 24 h of incubation for adherence at 37 °C in a humidified atmosphere (5% CO2/95% air), the compounds were added to reach the desired concentrations between 10 and 100 μM, respectively. All stock solutions were prepared in dimethylformamide at a concentration of 100 mM and were then diluted with the respective cell-culture medium to the appropriate concentrations. After another 72 h of incubation, the cellular metabolic activity was measured by employing a MTT assay. Hereby, the yellow tetrazolium salt is converted to a purple formazan salt by the functioning mitochondria. These purple crystals are then dissolved in DMSO and can be quantified via absorption measurements at 570 and 420 nm. The optical density of the particular medium was subtracted in order to exclude the unspecific staining caused by the FCS-containing medium. The values were calculated with Excel 2019 (Microsoft, Redmond, WA, USA) using nonlinear regression and the decal logarithm of the inhibitor versus variable slope equation, while the top constraint was set to 100%.

[2] = Solubility in water (qualitative observation); type: physicochemical
Procedure: Complex 1 was synthesized using the procedure reported by Fujita et al.,[20] and cubic bright-yellow crystals were obtained within hours. […] When a slightly lower concentration was used (0.4 mmol of platinum precursor instead of 0.5 mmol), keeping the amount of solvent constant, no crystallization occurred within a short time (3–4 h). However, some colorless needle-shaped crystals formed after an extended period of time (5–6 weeks). The crystals obtained from both conditions were analyzed via single-crystal X-ray diffractometry.
However, the release of olefin in an aqueous environment was detected to an extent of about 20% after 72 h. The chelating amino acid enhances the stability of complex 4 (>72 h) in comparison to compound 5 (69.6 ± 3.0 h).

[3] = Stability in aqueous solution followed by capillary electrophoresis; type: physicochemical
Procedure: The stability of complexes 1–4 was tested in an aqueous solution, to investigate how the different ways of amino acid coordination impacts aqueous degradation (see Table 4). The stability of complex 5 was previously measured in a 50% methanolic solution.[4]
(§4) A solution of sodium tetraborate (final borate concentration of 50 mM) and sodium dodecyl sulfate (100 mM) was used as a background electrolyte (BGE). The pH of the BGE was adjusted to 9.3 by titration with 1 M NaOH. Every new capillary was rinsed with 1 M NaOH (45 min), water (45 min), and BGE (45 min) before the first use. The capillary was kept on a constant temperature of 25 °C, whereas the sample carousel was temperature-controlled at 37 °C. Sample injection was performed in hydrodynamic mode, applying a pressure of 50 mbar for 2 s on the inlet vial. The separation voltage was set at +20 kV. If not stated differently, a wavelength of 195 nm was employed for the DAD detector. The analytic window was evaluated by using dodecaphenone as a micellar marker and methanol (HPLC grade) as an electroosmotic flow (EOF) marker. The run time required for the analysis was estimated to be 25 min. The capillary was flushed before every run with 0.1 M NaOH (3 min), water (3 min), and BGE (5 min). Every value is calculated from at least three independent measurements. The half-lives were presented as the mean ± standard deviation. All of the samples, buffers, and washing solutions were membrane-filtered (0.22 μm pore size). All samples employed for stability experiments were prepared using benzoic acid as an internal standard (IS).

[4] = Stability in concentrated trimethylglycine (TMG) aqueous solution followed by capillary electrophoresis; type: physicochemical; settings: dissolved in 50% w/v TMG, diluted to final TMG 25%; CE at 230 nm
Text: Kadokawa et al.[35] reported that a highly concentrated solution of trimethyl glycine (TMG, also known as betaine) is able to improve the solubility of cisplatin in water without affecting the pharmacological proprieties of this drug. The mechanism behind this effect seems to lie in the hydrogen bond acceptor property of the carboxylate of TMG, which establishes hydrogen bonds with the amino groups of cisplatin. Betaine is a nontoxic compound and is highly soluble in water. On the basis of this study, we decided to test the solubility of 3 in a highly concentrated (50% w/v) TMG aqueous solution. The platinum compound was soluble enough to allow investigations with the established protocol for capillary electrophoresis. TMG has a strong absorption at low wavelengths, and therefore, a wavelength of 230 nm was chosen instead of 195 nm for recording the electropherograms with TMG.
as §4

[5] = molecular target: T1, human recombinant COX-1 (Homo sapiens, UniProt P23219); experiment: COX-1 inhibition, enzyme immunoassay (COX Inhibitor Screening Assay); type: biochemical; settings: 2 min incubation
T1 construct: purchased Cayman Chemicals
T1 sequence (P23219 24-599): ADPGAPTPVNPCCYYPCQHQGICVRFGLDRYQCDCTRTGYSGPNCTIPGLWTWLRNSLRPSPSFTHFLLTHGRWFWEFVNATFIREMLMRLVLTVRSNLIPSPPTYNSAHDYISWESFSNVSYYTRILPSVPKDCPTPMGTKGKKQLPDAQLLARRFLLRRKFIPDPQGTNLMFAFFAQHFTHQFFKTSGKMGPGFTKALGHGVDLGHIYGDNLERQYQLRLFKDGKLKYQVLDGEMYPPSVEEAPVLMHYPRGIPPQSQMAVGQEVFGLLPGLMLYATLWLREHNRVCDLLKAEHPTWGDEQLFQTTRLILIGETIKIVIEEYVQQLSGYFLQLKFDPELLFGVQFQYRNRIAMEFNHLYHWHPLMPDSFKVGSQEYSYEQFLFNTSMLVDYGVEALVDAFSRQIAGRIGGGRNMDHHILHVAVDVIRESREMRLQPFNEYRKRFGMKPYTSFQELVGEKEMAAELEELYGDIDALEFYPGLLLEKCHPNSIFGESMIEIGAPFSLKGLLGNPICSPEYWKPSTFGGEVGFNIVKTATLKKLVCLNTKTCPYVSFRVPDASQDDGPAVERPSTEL
Procedure: The incubation time of the compounds with the respective isoenzymes was exactly 2 min. The results are presented as the mean ± SD of three independent experiments with two replicates of each experiment.

[6] = test system: MCF-7 breast cancer cell line; experiment: MTT metabolic activity (cytotoxicity) assay, MCF-7; type: cell-based; settings: 72 h incubation
Procedure: as §1, §2, §3

[7] = test system: MDA-MB-231 breast cancer cell line; experiment: MTT metabolic activity (cytotoxicity) assay, MDA-MB-231; type: cell-based; settings: for IC50: MTT, 72 h incubation
Procedure: as §1, §2, §3

[8] = Lipophilicity estimate from MEKC experiments (buffer/micelle partition); type: physicochemical; settings: three independent experiments (one for 5 and 6)
Procedure: The lipophilicity of the tested compounds was estimated on the basis of MEKC experiments similar to Herbert and Dorsey[37] (see Table 7). The values estimated in this way were compared with theoretical values obtained from two different methods: for platinum complexes, a previously established method[38] was used, while for the organic ligand, the Osiris Property Explorer[39] was employed.
as §4

[9] = 25 μM, without compounds set at 100%

| Compound | IC50 [1] | solubility in water (in words) [2] | half-life time (τ1/2) in water ([3]; water, CE, samples at 37 °C) | half-life time (τ1/2) in TMG solution [4] | % Inhibition COX-1 ([5]; 10 μM) | % Inhibition COX-1 ([5]; 25 μM) | IC50 [6] | IC50 [7] | coefficient of partition between buffer and micelles (k′), average [8] | metabolic activity (residual) on A2780cis [1, 9] | half-life time (τ1/2) in aqueous environment, 50% methanol solution ([3]; 50% methanol solution (footnote a of Table 4), CE) | release of olefin in aqueous environment ([3]; after 72 h) | metabolic activity (residual) on MDA-MB-231 [7, 9] |
| --- | --- | --- | --- | --- | --- | --- | --- | --- | --- | --- | --- | --- | --- |
| C=C.C[C@H](N)C(=O)[O][Pt][Cl] [1a, (Ethylene,N-trans)(L-alaninato-N,O)chlorido(η^2-ethene)platinate(II)] | > 50 µM | moderately soluble in water | >72 h | 24.3 ± 2.6 h | 43.67 ± 3.87% | 73.82 ± 5.60% | > 100 µM | > 50 µM | 0.629 ± 0.009 |  |  |  |  |
| (Ethylene,N-trans)(L-alaninato-N,O)chlorido(η^2-(but-3-en-1-yl)-2-acetoxybenzoate)platinate(II) [compound 4] | 22.5 ± 0.97 µM | better solubility in water |  | >72 h | 56.51 ± 0.72% | 65.95 ± 4.01% | 22.5 ± 3.23 µM | 15.4 ± 0.74 µM | 3.383 ± 0.016 | 33.13% | >72 ^a h | about 20% | 7.71% |
